Assay results published in patent publication US12122821B2, “Regulation of glucose metabolism using anti-CGRP antibodies” (H. LUNDBECK A/S, priority 2013, dated 2024).
“Also recorded” adds a separate entry of the source.

Tests used:
HFD rats [1] = assay: Fasting blood glucose, plasma insulin, C-peptide and HOMA-IR in HFD rats (Example 2); format: in vivo, rat; details: vs HFD vehicle
Description: (§1) After 6 weeks of HFD rats were randomized to treatment groups according to their glucose intolerance (AUC calculation during an oral glucose tolerance test (OGTT)) and their HOMA-IR (insulin resistance index).
(§2) Body weight and food consumption were measured 3 times per week until 10 days of treatment. HOMA-IR was measured on day 10 and 15. A 2-step clamp (5 mU/kg/min and then 15 mU/kg/min insulin) was performed on day 15 or 16. Glucose Turnover (GTO) was assessed using ^3H-glucose tracer infusion during the clamp procedure.
(§3) Ab14 (10, 30, 100 mg/kg) and the vehicle were weekly administered via i.v. route (via the caudal vein, under isoflurane anaesthesia), in the morning, on day 1 and day 8 of treatment.
Before the start of the treatment (the day of OGTT) and on day 10 of treatment, all rats were fasted from 08:00 am. At 01:30 pm, blood was collected from the from the tip tail (40 μL on EDTA). Blood glucose (using glucometers) and plasma insulin (ELISA method) were measured.
Plasma insulin and C peptide levels were measured just before the infusion starts (˜T-30 min.), at the end of the steady state of step 1 (T2 h) and step 2 (T3.5 h). For that, blood collection was performed from the tip of the tail (˜100 μL, on EDTA).

[2] = tested on: Zucker diabetic fatty (ZDF) rat; assay: Fasting blood glucose, plasma insulin, C-peptide and HOMA-IR in ZDF rats (Example 3); format: in vivo; details: for increase of plasma C-peptide levels / increase of plasma insulin levels: vs vehicle ZDF; for increase of plasma C-peptide levels: NS; for increase of plasma insulin levels: ns
Description: For the groups treated with AB14, the antibody was administered once weekly via the caudal vein (i.v., 5 mL/kg) on days 1, 8, 15, and 22 at two different doses 20 mg/kg/week (groups 3 and 7) or 60 mg/kg/week (groups 4 and 8). All other groups were treated once weekly with vehicle 1 (i.v., 5 mL/kg). The intravenous treatments were performed in the morning on day 1, 8, 15, and 22 while under isoflurane anaesthesia. The volume of administration was individually adapted according to the most recent body weight.
All other groups were treated daily with vehicle 2 (p.o., 5 mL/kg) for 28 days. The most recent body weight was used to calculate the average volume of administration in each group.
A fasting (6 hours on day 0 from 8:00 am to 02:00 pm, and overnight on day 12, 19 and 26 from ˜6:00 pm to ˜8:00 am) was performed before each blood collection. Blood was collected at ˜2:00 pm, from the tip of the tail, on day 0 (before screening, 150 μL, potassium EDTA), and at ˜8:00 am prior to dosing on days 12 (110 μL, potassium EDTA), 19 (150 μL, potassium EDTA) and 26, (110 μL, potassium EDTA).
Fasting blood glucose (glucometers) was measured on days 0, 12, 19, and 26. Fasting plasma insulin, peptide-C (ELISA method), free fatty acids, triglycerides, total cholesterol (colorimetric method), and HDL-cholesterol (phosphotungstate precipitation, colorimetric method) were measured on day 0, and prior to dosing on days 12, 19, and day 26. Non HDL-cholesterol was calculated as total cholesterol—HDL-cholesterol. Fructosamine was measured on days 0, 19 and 28. HbA1c (DCA 2000) was measured on days 0 and 28.

[3] = tested on: Zucker diabetic fatty (ZDF) rat; assay: Pancreas insulin and proinsulin content in ZDF rats (Example 3); format: in vivo; details: day 28, AB14 60 mg/kg, metformin 200 mg/kg/day, alone or combined, vs vehicle
Description: After 2 hours of food restriction (from 8:00 am to 10:00 am) 80 rats from the study were anesthetized on day 28 with isoflurane. Blood was collected (˜3000 μL from abdominal vein, on K2-EDTA) for the determination of AB14 plasma concentrations. Plasma (3 aliquots of ˜200 μL) was kept at −80° C. until testing. The pancreas tissue was then excised. Rats were euthanized by incision of the abdominal vein and aorta.
Each pancreas was divided into 2 parts (longitudinal cut).
Each pancreas sample was homogenized in an acid buffer, and insulin and proinsulin content were measured using ELISA kits in the following groups: […]

[4] = tested on: Zucker diabetic fatty (ZDF) rat; assay: Oral glucose tolerance test on day 26 in ZDF rats (Example 3); format: in vivo
Description: The oral glucose tolerance test (OGTT) was performed as follows. On day 25, rats were fasted at ˜6:00 pm and an oral glucose tolerance test was performed the day after (on day 26). At ˜8:00 am (T-60) a blood collection (110 μL, EDTA) was performed for biochemical parameters measurements. One hour after (˜09:00 am), an oral glucose bolus (1.5 g/kg) was administered (T0). Blood glucose was measured (glucometer or colorimetric method in case of high glycaemia) on T-60, T0, T15, T30, T60, T90, T120, and T180 minutes. Area under the curve (AUC) was calculated based on the blood glucose values measured at T0. Plasma insulin and C-peptide were measured (ELISA method) on T-60, T15 (·40 μL of blood, EDTA), and T30 minutes (·40 μL of blood, EDTA).

HFD rats [5] = assay: Body weight and food intake in high fat/high fructose diet (HFD) rats (Example 2); format: in vivo, rat; details: vs HFD vehicle
Description: as §1, §2, §3
Body weight was measured once a week during the first six week of HFD. Body weight was measured 3 times per week during the first 10 days of treatment. Food consumption was measured over 48 h or 72 h, just before treatment and 3 times per week during treatment until surgery procedure (day 11).

Normal rats = assay: Blood glucose, plasma insulin and HOMA-IR before clamp in normal rats (Example 1); format: in vivo, rat; details: vs vehicle
Description: The antibody used in this example consisted of the light and heavy polypeptide chains of SEQ ID NOs 132 and 134.
Blood glucose (BG) was measured between 07:30 and 08:00 (just before the light off) am from the tip of the tail with glucometer and a blood collection (on EDTA) was performed just after to measure plasma insulin. The table below describes the conditions:
Plasma samples were kept at −80° C. until insulin measurement (using ELISA method).
Vehicle and Ab14 were administered by i.v. route 48 h before the T0 of clamp procedure (at 02:00 pm two days before the clamp).
The rats were fasted 6 hours before the start of the clamp (at ˜8 h, just after the blood collection).

[6] = day 10, Ab14 10, 30, 100 mg/kg/week, metformin 200 mg/kg/day
[7] = day 12, metformin 200 mg/kg/day
[8] = day 19, metformin 200 mg/kg/day
[9] = day 26, metformin 200 mg/kg/day
[10] = Ab14 10, 30, 100 mg/kg/week i.v., metformin 200 mg/kg/day

SMILES: CN(C)C(=N)N=C(N)N [metformin, reference compound]
- decrease of HOMA-IR (HFD rats [1]; [6]): 36%
- decrease of fasting plasma insulin (HFD rats [1]; [6]): 37%
- fasting blood glucose (HFD rats [1]; [6]): no effect
- decrease of plasma C-peptide level (HFD rats [1]; day 15, metformin 200 mg/kg/day): 13%
- decrease of fasting plasma insulin (HFD rats [1]; day 15, metformin 200 mg/kg/day, ns): 11%
- increase of plasma C-peptide levels [2, 7]: 23%
- increase of plasma insulin levels [2, 7]: 79%
- increase of plasma C-peptide levels [2, 8]: 21%
- increase of plasma insulin levels [2, 8]: 55%
- fasting blood glucose, effect ([2]; day 19 and 26, metformin 200 mg/kg): not observed
- increase of plasma C-peptide levels [2, 9]: 9%
- increase of plasma insulin levels [2, 9]: 48%
- HOMA-IR ([2]; days 12, 19 and 26, metformin 200 mg/kg/day alone or in combination with AB14, vs vehicle ZDF): increase of HOMA-IR
- pancreas proinsulin levels [3]: completely prevented reductions
- pancreatic insulin levels [3]: significantly increased
- plasma insulin and C-peptide levels 15 and 30 minutes after the glucose load ([4]; day 26, metformin 200 mg/kg/day, pioglitazone 10 mg/kg/day, vs vehicle): slightly increased
- reduction in blood glucose AUC (OGTT) ([4]; day 26, pioglitazone 10 mg/kg/day, metformin 200 mg/kg/day, vs vehicle ZDF): 6%
- body weight (HFD rats [5]; 10 days of treatment, Ab14 10, 30, 100 mg/kg/week i.v., metformin 200 mg/kg/day): significantly decreased
- body weight gain (HFD rats [5]; Ab14 30 mg/kg, metformin 200 mg/kg): significantly decreased
- decrease of cumulative food consumption (HFD rats [5]; [10]): 25%
- food consumption (follow-up food intake) (HFD rats [5]; [10]): significantly decreased
- blood glucose in fed conditions (Normal rats; fed, 42 h after Ab14 100 mg/kg i.v., 18 h after metformin 500 mg/kg p.o.): did not affect; also recorded: not affected
- decrease of plasma insulin level in fed condition (Normal rats; fed, 42 h after Ab14 100 mg/kg i.v., 18 h after metformin 500 mg/kg p.o., not significant): 18%
- decrease of blood glucose in 6 hours fasting condition, just before clamp (Normal rats; metformin 500 mg/kg p.o.): 17%
